In US20260258025A1, “INHIBITORS OF TDP-43 AND TAU AGGREGATION” (Aquinnah Pharmaceuticals, inc., priority 2023, published 2026):

tested on: TDP-43 aggregation; test: TDP-43 aggregation assay in SY5Y TDP-43WT cells (high content imaging); assay type: cell-based; settings: Homo sapiens, tetracycline induction 24 hrs, 1 hour compound pre-treatment, sodium arsenite 23 hrs, 8-point dose curve, percentage of cells with TDP-43 aggregates, read-out: IC50, Inhibition of TDP-43 Aggregation
Experimental: Exemplary compounds disclosed herein were evaluated for efficacy in inhibiting TDP-43 inclusions cellular imaging-based assays.
The cellular model was in human neuroblastoma SH SYSY cells (ATCC, cat #: CRL-2266). The parent cell line was first engineered to stably express a tetracycline repressor protein (designated as TREx-SY5Y cells, customer cell line development by ThermoFisher). Wild-type human TDP-43 with a C-terminus eGFP tag was synthesized and cloned into pcDNA5/TO expression vector (ThermoFisher). The plasmid was transfected into TREx-SY5Y cells using Lipofectamine 2000 and hygromycin resistant colonies were selected. Expression of TDP-43WT::eGFP was examined under fluorescent microscopy and Western blot upon tetracycline induction. The clone that was used for TDP-43 aggregation assay is referred to as SY5Y TDP-43WT cells hereafter.
Compound inhibition of TDP-43 aggregation was tested in an 8-point dose curve in 96-well format. Briefly, TDP-43WT::eGFP expression was induced with […] for 24 hrs (SY5Y TDP-43WT cells). The cells were then pre-treated for 1 hour with exemplary compounds before adding sodium arsenite to a final concentration of […] and incubated for another 23 hrs. At the end of the treatment the cell monolayers were washed in PBS and fixed in 4% paraformaldehyde (PFA), diluted from 16% stock (Electron Microscopy Sciences cat: #15710-S). The inhibitory effect on TDP-43 aggregation was measured using CellInsight CX7 high content imager (ThermoFisher). The percentage of cells with TDP-43 aggregates was calculated based on the total number of cells identified by DAPI staining. An 8-point dose response curve was generated, and the IC50 for each compound tested was determined (Table 3).
In Table 3 below, A indicates an IC50 (nM)<500 nM, B indicates an IC50 (nM) 500 nM to <1000 nM, C indicates an IC50 (nM) 1000 nM to <2000 nM, D indicates an IC50 (nM) 2000 nM to <6000 nM, and E indicates an IC50 (nM) 6000 nM to ≤10000 nM.

SMILES	IC50 [µM]
Cc1cc(-c2ccc(C3(N(C)C)CCCC3)cc2)sc1C(=O)N1CC[C@H](N)C1 [Compound 193, (S)-(3-aminopyrrolidin-1-yl){5[4-(1-dimethylaminocyclopentyl)phenyl]-3-methylthiophen-2-yl}methanone]	0.5 to 1
Cc1cc(-c2ccc(C3=CCOCC3)cc2)sc1C(=O)N1CC[C@H](N)C1 [Compound 236]	< 0.5
Cc1cc(-c2ccc(N3CCC(C)CC3)cc2)sc1C(=O)N1CC[C@H](N)C1 [Compound 184, (S)-(3-aminopyrrolidin-1-yl)(3-methyl-5-(4-(4-methylpiperidin-1-yl)phenyl)thiophen-2-yl)methanone]	2 to 6
Cc1cc(-c2ccc(C3CCN(CC(C)(C)O)CC3)c(F)c2)sc1C(=O)N1CC[C@H](N)C1 [Compound 257, (S)-(3-aminopyrrolidin-1-yl)(5-(3-fluoro-4-(1-(2-hydroxy-2-methylpropyl)piperidin-4-yl)phenyl)-3-methylthiophen-2-yl)methanone]	< 0.5
N[C@H]1CCN(C(=O)c2sc(-c3ccc(C4CCN(C5CCC5)CC4)c(F)c3)cc2Cl)C1 [Compound 271, (S)-(3-aminopyrrolidin-1-yl)(3-chloro-5-(4-(1-cyclobutylpiperidin-4-yl)-3-fluorophenyl)thiophen-2-yl)methanone]	< 0.5
Cc1cc(-c2ccc(C3CCN(C4CCOC4)CC3)c(F)c2)sc1C(=O)N1CC[C@H](N)C1 (stereo partly drawn) [Compound 274, ((S)-3-aminopyrrolidin-1-yl)(5-(3-fluoro-4-(1-(tetrahydrofuran-3-yl)piperidin-4-yl)phenyl)-3-methylthiophen-2-yl)methanone]	< 0.5
CCc1cc(-c2cc(C)c(C(=O)N3CC[C@H](N)C3)s2)ccc1C1CCOCC1 [Compound 157, (S)-(3-aminopyrrolidin-1-yl)(5-(3-ethyl-4-(tetrahydro-2H-pyran-4-yl)phenyl)-3-methylthiophen-2-yl)methanone]	6 to 10
Cc1cc(-c2ccc3c(c2)CN(C)CC3)sc1C(=O)N1CC[C@H](N)C1 [Compound 189]	< 0.5
Cc1cc(-c2ccc(Cl)c(Cl)c2)sc1C(=O)N1CC[C@H](N)C1 [Compound 244]	2 to 6
Cc1cc(-c2ccc(C3CCN(C4CCCC4)CC3)c(F)c2)sc1C(=O)N1CC[C@H](N)C1 [Compound 278, (S)-(3-aminopyrrolidin-1-yl)(5-(4-(1-cyclopentylpiperidin-4-yl)-3-fluorophenyl)-3-methylthiophen-2-yl)methanone]	< 0.5
COc1cc(-c2ccc(C3CCN(C4CCOCC4)CC3)cc2)sc1C(=O)N1CC[C@H](N)C1 [Compound 293]	0.5 to 1
Cc1cc(-c2ccc(CN)cc2)sc1C(=O)N1CC[C@H](N)C1 [Compound 219]	< 0.5
Cc1cc(-c2ccc(-c3cn[nH]c3)cc2)sc1C(=O)N1CC[C@H](N)C1 [Compound 242]	< 0.5
Cc1cc(-c2ccc(C3CCN(C4CCNCC4)CC3)cc2)sc1C(=O)N1CC[C@H](N)C1 [Compound 177, (S)-(5-(4-([1,4′-bipiperidin]-4-yl)phenyl)-3-methylthiophen-2-yl)(3-aminopyrrolidin-1-yl)methanone]	0.5 to 1
Cc1cc(-c2ccc(C3CCN(C4CCC4)CC3)c(F)c2)sc1C(=O)N1CC[C@H](N)C1 [Compound 279, (S)-(3-aminopyrrolidin-1-yl)(5-(4-(1-cyclobutylpiperidin-4-yl)-3-fluorophenyl)-3-methylthiophen-2-yl)methanone]	< 0.5
Cc1cc(-c2ccc3c(c2)OCCC3)sc1C(=O)N1CC[C@H](N)C1 [Compound 194, (S)-(3-aminopyrrolidin-1-yl)(5-(chroman-7-yl)-3-methylthiophen-2-yl)methanone]	0.5 to 1
COCCCN1CCC(c2ccc(-c3cc(C)c(C(=O)N4CC[C@H](N)C4)s3)cc2F)CC1 [Compound 275, (S)-(3-aminopyrrolidin-1-yl)(5-(3-fluoro-4-(1-(3-methoxypropyl)piperidin-4-yl)phenyl)-3-methylthiophen-2-yl)methanone]	< 0.5
N[C@H]1CCN(C(=O)c2sc(-c3ccc(C4CCN(C5CCOCC5)CC4)c(F)c3)cc2Cl)C1 [Compound 295, (S)-(3-aminopyrrolidin-1-yl)(3-chloro-5-(3-fluoro-4-(1-(tetrahydro-2H-pyran-4-yl)piperidin-4-yl)phenyl)thiophen-2-yl)methanone]	< 0.5
COC(C)CN1CCC(c2ccc(-c3cc(C)c(C(=O)N4CC[C@H](N)C4)s3)cc2F)CC1 (stereo partly drawn) [Compound 251, ((S)-3-aminopyrrolidin-1-yl)(5-(3-fluoro-4-(1-(2-methoxypropyl)piperidin-4-yl)phenyl)-3-methylthiophen-2-yl)methanone]	< 0.5
COc1cc(-c2cc(C)c(C(=O)N3CC[C@H](N)C3)s2)ccc1C1CCN(C2CCOCC2)CC1 [Compound 260, (S)-(3-aminopyrrolidin-1-yl)(5-(3-methoxy-4-(1-(tetrahydro-2H-pyran-4-yl)piperidin-4-yl)phenyl)-3-methylthiophen-2-yl)methanone]	1 to 2
Cc1cnc(-c2cc(C)c(C(=O)N3CC[C@H](N)C3)s2)cn1 [Compound 223]	1 to 2
Cc1cc(-c2ccc(C3(N(C)C)CCCCC3)cc2)sc1C(=O)N1CC[C@H](N)C1 [Compound 192, (S)-(3-aminopyrrolidin-1-yl){5-[4-(1-dimethylaminocyclohexyl)phenyl]-3-methylthiophen-2-yl}methanone]	2 to 6
Cc1cc(-c2ccc(C3CCN(C4CN(C)C4)CC3)cc2)sc1C(=O)N1CC[C@H](N)C1 [Compound 173, (S)-(3-aminopyrrolidin-1-yl)(3-methyl-5-(4-(1-(1-methylazetidin-3-yl)piperidin-4-yl)phenyl)thiophen-2-yl)methanone]	< 0.5
COC(C)(C)CN1CCC(c2ccc(-c3cc(C)c(C(=O)N4CC[C@H](N)C4)s3)cc2F)CC1 [Compound 254, (S)-(3-aminopyrrolidin-1-yl)(5-(3-fluoro-4-(1-(2-methoxy-2-methylpropyl)piperidin-4-yl)phenyl)-3-methylthiophen-2-yl)methanone]	< 0.5
COC(C)(C)CN1CCC(c2ccc(-c3cc(Cl)c(C(=O)N4CC[C@H](N)C4)s3)cc2F)CC1 [Compound 249, (S)-(3-aminopyrrolidin-1-yl)(3-chloro-5-(3-fluoro-4-(1-(2-methoxy-2-methylpropyl)piperidin-4-yl)phenyl)thiophen-2-yl)methanone]	< 0.5
COc1cc(-c2ccc(C3CCN(C4CCOCC4)CC3)c(F)c2)sc1C(=O)N1CC[C@H](N)C1 [Compound 292, (S)-(3-aminopyrrolidin-1-yl)(5-(3-fluoro-4-(1-(tetrahydro-2H-pyran-4-yl)piperidin-4-yl)phenyl)-3-methoxythiophen-2-yl)methanone]	0.5 to 1
Cc1cc(-c2ccc3c(c2)CCC3N(C)C)sc1C(=O)N1CC[C@H](N)C1 (stereo partly drawn) [Compound 188, ((S)-3-aminopyrrolidin-1-yl)(5-(1-(dimethylamino)-2,3-dihydro-1H-inden-5-yl)-3-methylthiophen-2-yl)methanone]	< 0.5
Cc1cc(-c2ccc(C(C)(C)N(C)C)cc2)sc1C(=O)N1CC[C@H](N)C1 [Compound 190, (S)-(3-aminopyrrolidin-1-yl)(5-(4-(2-(dimethylamino)propan-2-yl)phenyl)-3-methylthiophen-2-yl)methanone]	< 0.5
